Marks after values point to notes of the source that are not given here.
How the values were obtained:
[1] = test system: hemorrhagic Dengue Fever; experiment: Hemorrhagic Dengue Fever study, duration of symptoms; format: in vivo, human; conditions: IM862 administered
Method: All those examined were representatives of organized collectives and had the same type of working and living conditions prior to the onset of illness. The patients were referred to in-patient treatment to the 175th Military Hospital in Ho Chi Minh City during an epidemic of Dengue fever in southern Socialist Republic of Vietnam.
Diagnoses of HDF were established by criteria recommended by the WHO (1986). Serological analyses were performed at the Arbovirus Infections Laboratory of the Pasteur Institute (Ho Chi Minh City). Disease severity was 1-2 in all patients.
The patients were divided into one group treated with IM862 and one group not receiving IM862. […] The efficacy of therapy was determined by observation of the duration of the most frequently encountered signs and symptoms of the disease (Table 14).

[2] = Blood parameters of Chernobyl victims after 3 years of treatment; format: in vivo, human; conditions: after therapy, IM862
Description: Blood parameters after 3 years of such treatment were restored to the statistical norm prior to their exposure to the radiation.

[3] = Thymectomized patients; format: in vivo, human; conditions: IM862 100 μg daily 10 days, repeated every 4-6 months, 12 patients
Description: Prior to therapy these individuals had experienced frequent serious infections including upper respiratory infections.

[4] = Infected patients with icterus (Example 95); format: in vivo, human; conditions: IM862 100 μg 5-10 days, 48 patients
Description: The hematological and immunological indices were normalized.

[5] = Post-term women; format: in vivo, human; conditions: IM862 IM or intranasally over 3-5 days, 19 women
Method: A total of 19 post-term women and 48 women post-term in the control study were treated.

[6] = test system: Staphylococci; experiment: Antibiotic-sensitivity of staphylococci from skin lesions (MIC, series cultivation); format: cell-based; conditions: after IM862 use (initially 10 of the 15)
Description: Staphylococci extracted from dermal lesions were initially sensitive to 10 of the 15 antibiotics being assayed (Table 25).

[7] = Pediatric purulent maxillary sinusitis, local IM862; format: in vivo, human; conditions: for B-lymphocytes % / B-lymphocytes abs. / Immune complexes / Leukocytes, abs / Lymphocytes % / Lymphocytes, abs / O-lymphocytes % / O-lymphocytes abs. / T-lymphocytes % / T-lymphocytes abs. / Lysozyme: after treatment c IM862
[8] = test system: T cells; experiment: Intracellular cAMP in T cells; format: cell-based
[9] = test system: corneal epithelium; experiment: Corneal epithelium restoration (experimental data); format: in vivo; conditions: IM862 IM, intranasally or ocular installation
[10] = Resistance to excessive solar radiation in hot marine climates; format: in vivo, human; conditions: IM862 intranasally 100 μg 3 days, 27 persons
Method: The control group comprised 24 persons. The administration was intranasally 100 μg for 3 days. […] There was also noted suppression of their immunologic indices.

[11] = acute purulent maxillary sinusitis
[12] = chronic purulent maxillary sinusitis and Highmore ethmoiditis
[13] = second group, after IM862 treatment

Glu-Trp [IM862]
Duration of Abdominal pain [1]: 7.7 ± 1.1 days | Duration of Anorexia [1]: 7.5 ± 0.8 days | Duration of Headaches [1]: 8.1 ± 0.9 days | Duration of Hepatomegaly [1]: 11.3 ± 0.8 days | Duration of Insomnia [1]: 7.1 ± 0.7 days | Duration of Joint pain [1]: 7.4 ± 0.7 days | Duration of Low back pain [1]: 8.1 ± 0.8 days | Duration of Lumbar pain [1]: 8.7 ± 0.7 days | Duration of Ophthalmalgia [1]: 6.6 ± 0.8 days | Duration of Splenomegaly [1]: 9.6 ± 0.7 days | Duration of Weakness/fatigue [1]: 9.3 ± 0.8 days | Duration of Fever, Prescription 2-4 days ([1]; total dose 500 μg): 4.7 ± 0.2 days | Duration of Fever, Prescription 2-6 days ([1]; total dose 500 μg): 5.2 ± 0.3 days | B-Ig+, % [2]: 11.0 ± 0.3% | B-Ig+, abs [2]: 0.23 ± 0.04 10^9/l | B-IgA+, % [2]: 1.9 ± 0.3% | B-IgA+, abs [2]: 0.04 ± 0.002 10^9/l | B-IgG+, % [2]: 4.8 ± 0.5% | B-IgG+, abs [2]: 0.09 ± 0.007 10^9/l | B-IgM+, % [2]: 4.1 ± 0.6 % | B-IgM+, abs [2]: 0.12 ± 0.003 10^9/l | CD2-DR+, & [2]: 32 ± 3 & | CD2-DR+, abs [2]: 0.66 ± 0.10** 10^9/l | CD3, % [2]: 59.2 ± 2.1 % | CD3, abs [2]: 1.21 ± 0.15 10^9/l | CD4, % [2]: 36.2 ± 1.7% | CD4, abs [2]: 0.74 ± 0.08 10^9/l | CD8, % [2]: 23.2 ± 2.1 % | CD8, abs [2]: 0.48 ± 0.07** 10^9/l | IMI, % [2]: 75 ± 6 % | IgA [2]: 1.2 ± 0.4 g/L | IgG [2]: 10.9 ± 1.3 g/L | IgM [2]: 1.06 ± 0.06 g/L | Leukocytes, abs [2]: 5.6 ± 0.4 10^9/l | Lymphocytes, abs [2]: 2.1 ± 0.3 10^9/l | T4/T8 [2]: 1.58 ± 0.04 | clinical effect [3]: normalization of immunologic indices | clinical effect [4]: normalization of fever | clinical effect [5]: effacement of the cervix | number of the 15 tested antibiotics to which organisms from the infected foci were sensitive [6]: 14 | B-lymphocytes % [7, 11]: 21.9 ± 2.1% | B-lymphocytes abs. [7, 11]: 778.0 ± 89.9 | Immune complexes [7, 11]: 113.3 ± 15.3 | Leukocytes, abs [7, 11]: 7200.0 ± 234.5 | Lymphocytes % [7, 11]: 44.7 ± 1.7% | Lymphocytes, abs [7, 11]: 3281.3 ± 235.0 | O-lymphocytes % [7, 11]: 34.3 ± 2.4% | O-lymphocytes abs. [7, 11]: 1082.0 ± 21.0 | T-lymphocytes % [7, 11]: 41.8 ± 1.2% | T-lymphocytes abs. [7, 11]: 1420.3 ± 131.6 | Lysozyme ([7]; acute purulent maxillary sinusitis, outwash from sinuses): 45.0 ± 5.9 | B-lymphocytes % [7, 12]: 20.7 ± 0.7% | B-lymphocytes abs. [7, 12]: 562.0 ± 38.1 | Immune complexes [7, 12]: 90.8 ± 10.0 | Leukocytes, abs [7, 12]: 6650.0 ± 262.2 | Lymphocytes % [7, 12]: 41.5 ± 2.6% | Lymphocytes, abs [7, 12]: 2761.8 ± 212.6 | Lysozyme [7, 12]: 52.4 ± 4.1 | O-lymphocytes % [7, 12]: 37.4 ± 1.9% | O-lymphocytes abs. [7, 12]: 1052.5 ± 109.3 | T-lymphocytes % [7, 12]: 41.8 ± 1.0% | T-lymphocytes abs. [7, 12]: 1109.8 ± 74.1 | time until improvement was noted ([7]; first group): 2 to 3 days | average hospital stay ([7]; first group (acute and subacute)): 9.2 days | quantity of crystallization centers in irrigated fluid ([7]; first group, end of treatment): 30-50 | cessation of exudation, number of patients ([7]; first group, in 7-9 days of treatment): 3 patients | cessation of exudation, number of patients ([7]; first group, on the 6th day of treatment): 5 patients | nasal breathing and general sense of wellness normalized, number of patients ([7]; second group): 38 patients | average hospital stay ([7]; second group (chronic)): 8 days | immunoglobulin M remained elevated, number of patients [7, 13]: 24 patients | serum immunoglobulin A normalized, number of patients [7, 13]: 10 patients | serum immunoglobulin G normalized, number of patients [7, 13]: 6 patients | increase in exudation from the affected sinuses ([7]; second group, at 3-4 days of treatment vs second 24-hour period): 10-15% | quantity of crystallization centers in irrigated fluid ([7]; second group, control crystallograms): 50-60 | disappearance of edema of the nasal mucosa, number of patients ([7]; second group, following 4-5 days of treatment): 32 patients | exudate attained a mucous character, number of patients ([7]; second group, in 3-4 days): 27 patients | cessation of exudation, number of patients ([7]; second group, in 4-6 days): 18 patients | exudate attained a mucous character, number of patients ([7]; second group, in 5-6 days): 13 patients | cessation of exudation, number of patients ([7]; second group, in 7-9 days): 20 patients | exudate attained a mucous character, number of patients ([7]; second group, in 7-9 days): two | cessation of exudation, number of patients ([7]; second group, in 10-14 days): 4 patients | therapeutic action during localized use ([7]; various forms of paranasal sinusitis): normalization of nasal breathing, decrease in nasal cavity mucosal edema, cessation of exudation from the involved sinuses | intracellular cAMP concentrations [8]: an increase of intracellular cAMP concentrations is observed | corneal epithelium [9]: restoration and regeneration of corneal epithelium | clinical effect [10]: prevented the occurrence of upper respiratory infections

Source: patent US20030198617A1, “Pharmaceutical tryptophan containing dipeptide compositions and methods of use thereof” (priority 1993, published 2003)
